Laboratory results taken from publication PMC8279414, “Discovery and Synthesis of a Pyrimidine-Based Aurora Kinase Inhibitor to Reduce Levels of MYC Oncoproteins” (Journal of Medicinal Chemistry, 2021).
Where two headings read alike, the source gives them in different places.

Experiments:
[1] = tested on: NCI-H2171; assay: Cell proliferation inhibition assay (PrestoBlue); format: cell-based; details: Homo sapiens, NCI-H2171, 72 h; read-out: Compound 13 IC50 (half-proliferation inhibition concentration)
Description: (§1) SCLC is an aggressive malignancy that accounts for around 10–15% of all lung cancers, for which no targeted therapy is currently available.[29],[30] SCLC cells are characterized by rapid proliferation, universal RB1 and TP53 inactivation, and high rates of MYC-family amplification.[31] A recent study of MYC amplification in 77 formalin-fixed paraffin-embedded SCLC tumor samples using chromogenic in situ hybridization identified amplification of the MYC-family oncogenes in 20% of the tumors.[32],[33] Thus, we evaluated the growth-inhibitory effects of 13 on nine different SCLC cell lines: five with cMYC amplification, one with MYCN amplification, one with MYCL amplification, and two with no MYC-family amplification.
(§2) The efficacy of the compounds as inhibitors of cancer cell proliferation was assessed using PrestoBlue Cell Viability Reagent (ThermoFisher Scientific, USA). Cells were seeded at a density of 5000–10,000 cells per well in 96-well plates. After 24 h, cells were treated with each compound at various concentrations (0–10 μM). IC50 values were computed based on a triplicate, eight-point titration. After 72 h of drug treatment, 10 μL of PrestoBlue Cell Viability Reagent was added to each well, and fluorescence signals were collected using a Wallac Vector 1420 multilabel counter (PerkinElmer, USA).

[2] = tested on: NCI-H524; assay: Cell proliferation inhibition assay (PrestoBlue); format: cell-based; details: Homo sapiens, NCI-H524, 72 h; read-out: Compound 13 IC50 (half-proliferation inhibition concentration)
Description: as §1, §2

[3] = tested on: NCI-H82; assay: Cell proliferation inhibition assay (PrestoBlue); format: cell-based; details: Homo sapiens, NCI-H82, 72 h; read-out: Compound 13 IC50 (half-proliferation inhibition concentration)
Description: as §1, §2

[4] = tested on: NCI-H146; assay: Cell proliferation inhibition assay (PrestoBlue); format: cell-based; details: NCI-H146 (MYC-unamplified), read-out: Compound 13 IC50 (half-proliferation inhibition concentration)
Description: as §1, §2

[5] = tested on: NCI-H211; assay: Cell proliferation inhibition assay (PrestoBlue); format: cell-based; details: Homo sapiens, NCI-H211, 72 h; read-out: Compound 13 IC50 (half-proliferation inhibition concentration)
Description: as §1, §2

[6] = tested on: NCI-H446; assay: Cell proliferation inhibition assay (PrestoBlue); format: cell-based; details: Homo sapiens, NCI-H446, 72 h; read-out: Compound 13 IC50 (half-proliferation inhibition concentration)
Description: as §1, §2

[7] = Body weight of xenograft mice during treatment; format: in vivo
Procedure: (§3) Male athymic nu/nu nude mice (BioLASCO, Taiwan) 6 weeks old were housed in sterile cages maintained under 12 h light/dark cycles with controlled temperature and humidity. Mice were inoculated subcutaneously with 1 × 10^6 NCI–H446 cells (ATCC@ HTB-171) resuspended in saline mixed with 50% Matrigel matrix (Corning, USA). The sizes of the xenografted tumors were measured by a digital caliper (GMC-190; Goldsun Electronics Co.) and calculated using the formula: tumor volume (mm^3) = length × (width)2/2. Body weight and tumor size were measured at least twice a week. When the xenograft tumor reached ≥200 mm^3 in size, mice were intravenous or orally administered with the vehicle (5% dimethylacetamide/95% PEG400) or the compounds on a 5-on-2-off dosing regimen for 2–4 weeks. Tumor growth was analyzed for a statistically significant difference using ANOVA, followed by the Student–Newman–Keuls test. P < 0.05 was considered a significant difference between groups.

[8] = tested on: cMYC in NCI-H82; assay: Western blot analysis of cMYC protein level in NCI-H82 cells; format: cell-based; details: for NCI-H82 cMYC, relative protein level: 1.0 μM of compound, mean ± SD, triplicate
Procedure: (§4) Cancer cells were treated with each of the compounds at different compound concentrations. […] Each lysate was separated by sodium dodecyl sulfate polyacrylamide gel electrophoresis (SDS-PAGE), transferred to polyvinylidene fluoride (PVDF, Millipore, USA) membrane, and blotted with antibodies. […] After the blotting (0.2% casein, 1% BSA, or 5% nonfat milk), membranes were washed with blotting buffer (0.2% casein in 1× PBS or 1× TBST), and corresponding alkaline phosphatase (AP)- or horseradish peroxidase (HRP)-conjugated secondary antibodies (Sigma-Aldrich) were added. The blots were developed by chemiluminescence (PerkinElmer, USA).

[9] = tested on: MYCN in SK-N-BE(2); assay: Western blot analysis of MYCN protein level in SK-N-BE(2) cells; format: cell-based; details: for SK-N-BE(2) MYCN, relative protein level: 1.0 μM of compound, mean ± SD, triplicate
Procedure: as §4

[10] = tested on: high-MYC expressing small-cell lung cancer (SCLC) cell lines; assay: Cell proliferation inhibition assay, cell lines not named singly; format: cell-based; details: high-MYC expressing / cMYC-amplified SCLC cell lines, 72 h
Description: as §1, §2

[11] = tested on: NCI-H446 xenograft tumors; assay: In vivo xenograft tumor growth inhibition; design: species or system mice; details: for anticancer activity in NCI-H446 xenograft tumor model: oral administration, 5-on-2-off regimen
Procedure: as §3

[12] = biological target: T1, human Aurora A (amino acids 123–401) (Homo sapiens, UniProt O14965); assay: In vitro inhibition of Aurora A kinase activity (Kinase-Glo Plus Luminescent Kinase assay, ATP consumption); format: biochemical; details: mean of 2–3 independent determinations ± SD; >100 = inhibition < 50% at 100 nM
T1 construct: N-terminal truncated human Aurora A (amino acids 123–401); GST; made in house; host or cells: Sf9 insect cells
T1 sequence (O14965 123-401): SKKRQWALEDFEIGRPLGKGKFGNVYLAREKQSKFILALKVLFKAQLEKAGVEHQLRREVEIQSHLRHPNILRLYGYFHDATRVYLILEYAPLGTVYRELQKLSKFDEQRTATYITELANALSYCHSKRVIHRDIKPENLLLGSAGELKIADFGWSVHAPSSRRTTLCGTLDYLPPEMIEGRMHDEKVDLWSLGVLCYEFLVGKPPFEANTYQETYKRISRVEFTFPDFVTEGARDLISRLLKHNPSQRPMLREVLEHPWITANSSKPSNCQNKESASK
Procedure: The inhibitory potency of the newly synthesized small molecules against Aurora A was first measured in ATP consumption assays using purified Aurora A protein.
The efficacy of the compounds as inhibitors of Aurora A kinase was assessed in vitro using the Kinase-Glo Plus Luminescent Kinase assay (Promega, USA), as described previously.[45] […] The resulting mixture was incubated at 25 °C for 20 min. A 70 μL aliquot of the mixture was transferred to a black microtiter plate.

[13] = tested on: cMYC in NCI-H446 xenograft tumors; assay: In vivo target validation: cMYC protein level in tumors (western blot); design: species or system mice; details: single oral dose 100 mg/kg
Procedure: (§5) Tumors were harvested after 2, 4, 8, and 24 h of the treatment, respectively (Figure 4A). Whole tumor tissues were collected for western blotting and immunohistochemistry (IHC) analyses. […] The western blot result of phosphorylated Aurora A/B/C was not provided due to the inability of detecting the signal in the tumor tissues.
(§6) The efficacy of a compound in reducing the MYC protein level and in inducing cell apoptosis was assessed using an NCI-H446 xenograft tumorigenicity mouse model. Six-week-old male athymic nu/nu nude mice (BioLASCO, Taiwan) were inoculated subcutaneously with 1 × 10^6 NCI-H446 cells resuspended in saline mixed with 50% Matrigel matrix (Corning, USA). […] Tumors were harvested after 2, 4, 8, and 24 h of drug treatment, respectively. Half of the tumor was cryopreserved and then subjected to western analysis; the other half was fixed in 10% formalin and then embedded in paraffin. For immunohistochemistry, tissue paraffin sections were deparaffinized using xylene and ethanol. After rehydration, antigen retrieval was achieved by placing the slides in 100 °C citrate buffer, pH 6.0 for 1 h. Endogenous peroxides were quenched by 0.5% H2O2 for 10 min. Slides were blocked with 3% BSA for 30 min and then incubated with a rabbit anticleaved Caspase-3 antibody (Cell signaling, 9661S) at room temperature for 1.5 h. After three washes with 1× PBS, a goat antirabbit HRP-polymer (Biocare Medical, USA) was added, followed by development of the color using 3,3′-diaminobenzidine substrate chromogen (Biocare Medical, USA). The nucleus was stained with hematoxylin.

[14] = tested on: cleaved PARP-1 (cPARP-1) in NCI-H446 xenograft tumors; assay: In vivo target validation: cleaved PARP-1 in tumors (western blot); design: species or system mice; details: single oral dose 100 mg/kg, after 24 h
Procedure: (§7) Apoptosis was assessed using levels of PARP-1, one of several known cellular substrates of caspases; cleavage of PARP-1 by caspases is considered a hallmark of apoptosis.[44]
as §6, with “The nucleus was stained with hematoxylin.” left out

[15] = tested on: pH3(Ser10) in NCI-H446 xenograft tumors; assay: In vivo target validation: phosphorylation of histone H3 at Ser10 in tumors (western blot); design: species or system mice; details: single oral dose 100 mg/kg, 2 h after drug administration
Procedure: as §5
as §6, with “After three washes with 1× PBS, a goat antirabbit HRP-polymer (Biocare Medical, USA) was added, followed by development of the color using 3,3′-diaminobenzidine substrate chromogen (Biocare Medical, USA). The nucleus was stained with hematoxylin.” left out

[16] = tested on: cleaved Caspase-3 (CASP3) in NCI-H446 xenograft tumors; assay: In vivo target validation: cleaved Caspase-3 immunohistochemistry; design: species or system mice; details: single oral dose 100 mg/kg
Procedure: as §7
as §6, with “The nucleus was stained with hematoxylin.” left out

[17] = PO, 5-on-2-off, after end of dosing

## CCN1CCN(c2cc(Nc3cc(C)[nH]n3)nc(N[C@H]3CCN(C(=O)c4ccc(Cl)cc4F)C3)n2)CC1 [Compound 13, (S)-(4-Chloro-2-fluorophenyl) (3-((4-(4-ethylpiperazin-1-yl)-6-((5-methyl-1H-pyrazol-3-yl)amino)pyrimidin-2-yl)amino)pyrrolidin-1-yl)methanone]
[1]
  IC50: 27.1 nM
[2]
  IC50: 3.36 nM
[3]
  IC50: 51.7 nM
[4]; Homo sapiens, NCI-H146, 72 h
  IC50: 1180 nM
[4]; 72 h
  IC50: > 1000 nM
[5]
  IC50: 105 nM
[6]
  IC50: 120 nM
[7]; IV 50 mg/kg, 5-on-2-off, during the treatment
  body weight change: less than 5%
[8]; 1.0 μM
  reduction of cMYC level: > 50%
[8]; 24 h
  NCI-H82 cMYC, relative protein level: 0.475 ± 0.023
[8]; various concentrations, 24 h
  effect on cMYC protein level in NCI-H82: dose-dependent loss
[9]; 1.0 μM
  reduction of MYCN level: > 50%
[9]; 24 h
  SK-N-BE(2) MYCN, relative protein level: 0.487 ± 0.066
[9]; various concentrations, 24 h
  effect on MYCN protein level in SK-N-BE(2): dose-dependent loss
[10]
  IC50: < 200 nM
[11]; IV 50 mg/kg, 5-on-2-off dosing schedule, two weeks, nude mice
  tumor growth inhibition: > 90%
[12]
  IC50: 38.6 ± 7 nM

## CCC(=O)n1nc(C)cc1Nc1cc(N2CCN(CC)CC2)nc(N[C@H]2CCN(C(=O)c3ccc(Cl)cc3F)C2)n1 [Compound 25, (S)-1-(5-((2-((1-(4-Chloro-2-fluorobenzoyl)pyrrolidin-3-yl)amino)-6-(4-ethylpiperazin-1-yl)pyrimidin-4-yl)amino)-3-methyl-1H-pyrazol-1-yl)propan-1-one]
[13]; 24 h after dosing
  cMYC protein level relative to vehicle-treated tumors: around 37%
[13]; 24 h post-treatment, vehicle 1.0 ± 0.230
  relative cMYC protein level in tumors: 0.374 ± 0.204
[7]; PO 100 mg/kg, 4-week dosing period
  body weight change: less than 5%
[14]
  cleaved PARP-1 (cPARP-1) levels in tumor tissues: significantly upregulated
[11]; PO 100 mg/kg, 5-on-2-off, 2 weeks
  shrinkage of tumors with volume >750 mm^3: great potency to shrink tumors
[11]; PO 100 mg/kg, 5-on-2-off, four consecutive weeks
  tumor volume regression: > 80%
[11]; [17]
  xenografted tumors remained stable after the last dosage: 44 days
[11]
  anticancer activity in NCI-H446 xenograft tumor model: dose-dependent anticancer activity
[15]
  reduction of phosphorylation level of histone H3 at Ser10: > 90%
[16]
  incidence of cleaved Caspase-3 (CASP3), IHC: greatly increased

## CCOC(=O)n1nc(C)cc1Nc1cc(N2CCN(CC)CC2)nc(N[C@H]2CCN(C(=O)c3ccc(Cl)cc3F)C2)n1 [Compound 22, Ethyl (S)-5-((2-((1-(4-chloro-2-fluorobenzoyl)pyrrolidin-3-yl)amino)-6-(4-ethylpiperazin-1-yl)pyrimidin-4-yl)amino)-3-methyl-1H-pyrazole-1-carboxylate]
[11]
  anticancer activity in NCI-H446 xenograft tumor model: dose-dependent anticancer activity

## COc1cc(Nc2ncc3c(n2)-c2ccc(Cl)cc2C(c2c(F)cccc2OC)=NC3)ccc1C(=O)O [MLN8237, reference compound]
[13]; 2–24 h
  effect on the cMYC level in tumors: marginal effect
[14]
  cleaved PARP-1 (cPARP-1) levels in tumor tissues: significantly upregulated
[11]; [17]
  tumors started to grow, day after the last dosage: 22 days
[15]
  reduction of phosphorylation level of histone H3 at Ser10: > 90%

## CCN1CCN(c2cc(Nc3cc(C)[nH]n3)nc(N[C@H]3CCN(C(=O)c4ccc(Cl)c(F)c4F)C3)n2)CC1 [Compound 17, (S)-(4-Chloro-2,3-difluorophenyl) (3-((4-(4-ethylpiperazin-1-yl)-6-((5-methyl-1H-pyrazol-3-yl)amino)pyrimidin-2-yl)amino)pyrrolidin-1-yl)methanone]
[8]; 24 h
  NCI-H82 cMYC, relative protein level: 0.744 ± 0.124
[9]; 24 h
  SK-N-BE(2) MYCN, relative protein level: 0.541 ± 0.068
[12]
  IC50: 64.9 ± 13.7 nM
